Assay [1] deals with MCF10A human mammary epithelial cells. Put plainly: Cell death (Sytox green+) by time-lapse microscopy, MCF10A. The class given is cell-based. Particulars: for effect on nanoparticle-induced cell death / effect on α-MSH-PEG-C′ dot-induced cell death: AA-st plus 15 μM α-MSH-PEG-C′ dots, 40 hours; for effect on nanoparticle-induced cell death: 50 μM BHA, 200 μM ascorbic acid, 100 μM Trolox, 10 mM NAC, 5 mM GSH; for effect on α-MSH-PEG-C′ dot-induced cell death: inhibitor 1 μM. The procedure: (§1) MEF and HT1080 cells were cultured in Dulbecco's modified Eagle's medium (DMEM) (MSKCC Media Preparation Facility) supplemented with 10% fetal bovine serum (FBS, Sigma, St. Louis, Mo.) with penicillin/streptomycin (Corning, Corning, N.Y.). MCF10A cells were cultured in DMEM/F12 (Gibco, Grand Island, N.Y.) supplemented with 5% horse serum (Atlanta Biologicals, Flowery Branch, Ga.), 20 ng/ml EGF (Peprotech, Rocky Hill, N.J.), 10 μg/ml insulin (Sigma), 0.5 μg/ml hydrocortisone (Sigma), and 100 ng/ml cholera toxin (Sigma) with penicillin/streptomycin. M21, BxPC3, H1650, and 786-O cells were cultured in RPMI-1640 (Gibco) supplemented with 10% FBS with penicillin/streptomycin. SKOV3 cells were cultured in McCoy's 5a modified medium (Gibco) supplemented with 10% FBS with penicillin/streptomycin. Amino acid-free medium was prepared by dialyzing heat-inactivated FBS (for MEF, HT1080, M21, BxPC3, H1650, and SKOV3 cells) or horse serum (for MCF10A cells) for 4 h, followed by overnight incubation at 4° C. in phosphate-buffered saline (PBS) in MWCO 3500 dialysis tubing (21-152-9; Fisherbrand, Pittsburgh, Pa.) and addition to base media prepared without amino acids. PRetro-Lamp1-GFP was introduced into M21 cells by retroviral transduction, and stable cell lines were selected with puromycin (2 μg ml^−1).
(§2) NIS Elements software (Nikon, Melville, N.Y.) was used.

For assay [2], the system named is ferritin heavy chain (FTH1). In words: Ferritin heavy chain western blot. The class given is cell-based. The conditions noted are these: amino acid-starved cells, 24 hours; 15 μM particles, FAC 400 μM, DFO 100 μM. (Immunoblotting shows a protein as a band on a membrane.)
For assay [3], the system named is amino acid-starved cells. Particulars: amino acid-starvation conditions, FAC 400 μM.
Assay [4] has as its system mouse embryo fibroblasts (MEF). Put plainly: Cell death (Sytox green+) by time-lapse microscopy, MEF. The class given is cell-based. Particulars: wt MEFs, 100 ng/ml TNFα, 1 μg/ml CHX and 20 μM zVAD, plus 30 μM Nec-1. The procedure: as §1, §2
Assay [5] concerns glutathione. Put plainly: Glutathione quantification. Type of assay: cell-based. Particulars: MCF10A, full or amino acid-free media, 24 hours; 15 μM particles or 400 μM BSO. The procedure:
For glutathione measurements, HT-1080 cells were plated on 6 cm cell culture dishes, incubated with 15 μM α-MSH-tagged nanoparticles in amino acid-free DMEM+10% dialyzed FBS and harvested approximately 2 hours before the expected time of death. As controls, cells were treated with a mix of 3 parts full or amino acid-free DMEM and 1 part H2O, or 100 μM BSO in full media. Cells were washed 3× with cold PBS and harvested through cell scraping in 50 μL cold lysis buffer. Protein concentrations were measured using the BCA assay and sample volumes were adjusted so that each had the same final protein concentration. Total glutathione was measured using the Glutathione Assay Kit (Cayman Chemicals, 703002) and reduced glutathione was measured using the QuantiChrom™ Glutathione Assay Kit (BioAssay Systems, DIGT-250) according to manufacturer's instructions.

Assay [6] deals with lipid ROS. In words: C11-BODIPY imaging of lipid ROS before cell death. Type of assay: cell-based. The conditions noted are these: erastin 5 μM plus liproxstatin-1, 6 hours after control cells underwent cell death.
Excerpt: as §2

Assay [7] concerns HT-1080 tumors. Put plainly: HT-1080 flank xenograft, multi-dose i.v. particle treatment. Type of assay: in vivo, mice. The procedure:
All animal experiments were performed in accordance with protocols approved by the Institutional Animal Care and Use Committee of Memorial Sloan-Kettering Cancer Center and followed NIH guidelines for animal welfare. Human melanoma (M21) xenografts were generated on the shaved flanks of immunodeficient male SCID/Beige (C.B-17/IcrHsd-Prkdc^scidLyst^bg-J) mice (6-8 weeks old; Harlan Laboratories, South Easton, Mass.). Human sarcoma HT1080 and 786-O flank xenografts[…]) were additionally generated using the same model for intravenous particle injection. Average initial tumor volumes of 45-75 mm^3 were used for all experiments.
Five million M21 cells, cultured in serum-supplemented media, were subcutaneously implanted into the right flank of mice using a 23-gauge trocar needle to establish melanoma xenografts 2 days after particle exposure (n=3) or without exposure (n=3). […] Tumor sizes were measured using calipers over the treatment interval. […] Two perpendicular diameters (d1≤d2) of the tumor used to calculate the tumor volume (V; 4/3·π·d1^2·d2/8) were measured with calipers daily following the injection of cells.
Volume-time profiles were compared between the two treatment groups using robust standard errors calculated using by a generalized estimating equations approach. […]

With `CC(=O)N[C@@H](CS)C(=O)O` [N-acetylcysteine], in assay [1], the “effect on nanoparticle-induced cell death” value is recorded as “inhibited”.
Same read-out and setting: the same measure for `O=C1O[C@H]([C@@H](O)CO)C(O)=C1O` [ascorbic acid, Ascorbic acid]: “inhibited”.
`C/C=C/[C@H]1O[C@@](O)([C@@H](C)[C@H](O)[C@H](C)[C@H]2OC(=O)/C(OC)=C/C(C)=C/[C@@H](C)[C@@H](O)[C@@H](CC)[C@@H](O)[C@H](C)C/C(C)=C/C=C/[C@@H]2OC)C[C@@H](O[C@H]2C[C@@H](O)[C@H](OC(N)=O)[C@@H](C)O2)[C@@H]1C` [concanamycin A, Concanamycin A]: the cell death morphology entry in assay [1] (amino acid-free media, 100 nM ConA) was “undergo cell death with morphologic features of apoptosis”.
Consider `CCOC(=O)c1ccc(NC2CCCCC2)c(N)c1` [ferrostatin-1, Ferrostatin-1], for which the “effect on α-MSH-PEG-C′ dot-induced cell death” value in assay [1] was “rescued cell viability”.
On to `Cc1c(C)c2c(c(C)c1O)CCC(C)(C(=O)O)O2` (stereo not shown) [trolox, Trolox], for which the “effect on nanoparticle-induced cell death” value in assay [1] was “inhibited”.
For Ferric ammonium citrate, the “ferritin heavy chain (FTH1) expression” value in assay [2] was “increased”. The “percent cell death (Sytox green+)” value in assay [3] is on record as “sufficient to mimic α-MSH-PEG-C′ dot-induced death”.
For the molecule `CN1C(=O)C(Cc2c[nH]c3ccccc23)NC1=S` (stereo not shown) [necrostatin-1, Necrostatin-1], the “cell death on necroptosis induction” value in assay [4] was “do not undergo cell death”.
On to `CCCCS(=N)(=O)CCC(N)C(=O)O` (stereo not shown) [BSO, Buthionine sulphoximine], for which, in assay [5], the “reduced glutathione (GSH) levels” value is “reduce glutathione levels”.
On to `COc1ccc(O)c(C(C)(C)C)c1` [butylated hydroxyanisole, Butylated hydroxyanisole], for which, in assay [1], the “effect on nanoparticle-induced cell death” value was “inhibited”.
In the case of `C[C@@H]1C[C@@H]([C@H](O)CC2CC(=O)NC(=O)C2)C(=O)[C@@H](C)C1` [cycloheximide, Cycloheximide], in assay [1] (50 μg/ml cycloheximide), the “temporal pattern of apoptotic cell death” value was “asynchronous pattern of cell death”.
As for `Clc1cccc(CN=C2Nc3ccccc3NC23CCNCC3)c1` [liproxstatin-1, Liproxstatin-1], in assay [6], the “effect on C11-BODIPY staining induced by erastin” value is “inhibits C11-BODIPY staining induced by erastin treatment”. For the same molecule, the “effect on α-MSH-PEG-C′ dot-induced cell death” value in assay [1] is reported as “rescued cell viability”. Moreover, the “average daily tumor growth” value in assay [7] (HT1080, particle-exposed tumors (three 60 μM i.v. doses) treated with daily i.p. liproxstatin-1 125 mg/kg, 10 days, 95% CI: 10.1-18.9) worked out at 14.6 mm^3. In assay [7] (HT1080, CI: 13.1 to 17.6, p<0.001), the “difference in average daily tumor growth, particles plus liproxstatin-1 vs particles alone” value amounted to 15.3 mm^3.
As to `N[C@@H](CCC(=O)N[C@@H](CS)C(=O)NCC(=O)O)C(=O)O` [glutathione, Glutathione], the “effect on nanoparticle-induced cell death” value in assay [1] was “inhibited”.

These data come from patent US11246946B2, “Methods of treatment using ultrasmall nanoparticles to induce cell death of nutrient-deprived cancer cells via ferroptosis” (priority 2015, dated 2022).
